Biological target: T1, homomeric A2 channels (wt CNGA2) (Rattus norvegicus, UniProt Q00195)
T1 sequence (Q00195 1-664): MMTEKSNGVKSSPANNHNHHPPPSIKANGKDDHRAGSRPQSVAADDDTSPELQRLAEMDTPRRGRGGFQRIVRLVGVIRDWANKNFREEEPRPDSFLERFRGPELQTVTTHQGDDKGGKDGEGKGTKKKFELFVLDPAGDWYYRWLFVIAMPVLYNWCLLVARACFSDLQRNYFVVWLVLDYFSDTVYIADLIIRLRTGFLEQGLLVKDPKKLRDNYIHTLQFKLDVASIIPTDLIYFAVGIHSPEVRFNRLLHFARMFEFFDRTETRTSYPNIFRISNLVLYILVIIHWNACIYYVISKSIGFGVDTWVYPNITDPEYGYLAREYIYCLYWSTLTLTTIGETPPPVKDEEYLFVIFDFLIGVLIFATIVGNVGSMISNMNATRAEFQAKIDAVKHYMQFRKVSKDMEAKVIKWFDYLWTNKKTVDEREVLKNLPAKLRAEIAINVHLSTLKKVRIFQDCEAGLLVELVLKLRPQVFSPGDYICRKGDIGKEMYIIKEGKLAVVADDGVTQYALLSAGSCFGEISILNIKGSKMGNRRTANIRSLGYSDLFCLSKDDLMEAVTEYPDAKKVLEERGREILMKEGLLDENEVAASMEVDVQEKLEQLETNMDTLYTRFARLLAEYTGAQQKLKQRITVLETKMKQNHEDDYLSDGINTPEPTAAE
Assay: inside-out patch clamp, macroscopic current
Type: biochemical
Conditions: agonist; +100 mV, 150 mM KCl, pH 7.4; Xenopus oocytes

Nc1nc2c(ncn2[C@@H]2O[C@@H]3COP(=O)(O)O[C@H]3[C@H]2O)c(=O)[nH]1 [cGMP]
EC50: concentration–activation relationships to homomeric A2 channels

Source: publication PMC8325370 (Proceedings of the National Academy of Sciences of the …, 2021)
